Source: BindingDB's records for doi:10.1016/j.bmcl.2021.128376 (Bristol Myers Squibb Research and Development, 2021)

Assay: Inhibition of c-MYC (unknown origin)
Cc1nnn(C)c1-c1cc2c(cc1Cl)c1ncc(C(C)(C)O)cc1n2[C@H](c1ccccc1)C1CCOCC1 [US10683290, Example 77] gave an IC50 of 42 nM. Cc1nnn(C)c1-c1cnc2c3ccc(C(C)(C)O)cc3n([C@H](c3ccccc3)C3CCOCC3)c2c1 [US10112941, Example 54] gave an IC50 of 0.7 nM. [2H]C([2H])([2H])c1nnn(C)c1-c1cc2c(cc1F)c1ncc(C(C)(C)O)cc1n2[C@H](c1cc(C)on1)C1CCOCC1 showed an IC50 of 2.4 nM. With [2H]C([2H])([2H])c1nnn(C)c1-c1cc2c(cc1F)c1ncc(C(C)(C)O)cc1n2[C@@H](CCC)c1ncccc1F the IC50 was 0.7 nM. Compound Cc1nnn(C)c1-c1cc(F)c2c3ncc(C(C)(C)O)cc3n([C@H](c3ccccc3)C3CCOCC3)c2c1 [US10683290, Example 11] has an IC50 of 3.4 nM. [2H]C([2H])([2H])c1nnn(C)c1-c1cc2c(cc1F)c1ncc(C(C)(C)O)cc1n2[C@H](c1ncccc1F)C1CCOCC1 gave an IC50 of 1.3 nM. With Cc1nnn(C)c1-c1ccc2c3ncc(C(C)(C)O)cc3n([C@H](c3ccccc3)C3CCOCC3)c2c1 [US10683290, Example 16] the IC50 was 0.2 nM. Work on Cc1nnn(C)c1-c1ccc2c3ncc(C(C)(C)O)cc3n([C@H](c3ccccc3)C3CCOCC3)c2c1F [US10683290, Example 20] yielded an IC50 of 0.6 nM. In the case of Cc1nnn(C)c1-c1cc2c(cn1)c1ncc(C(C)(C)O)cc1n2[C@H](c1ccccc1)C1CCOCC1 [US9725449, Example 364], the IC50 is reported as 6.9 nM. Cc1nnn(C)c1-c1cc2c(cc1F)c1ncc(C(C)(C)O)cc1n2[C@H](c1ccccc1)C1CCOCC1 [US10683290, Example 19] gave an IC50 of 0.8 nM.
